Test results taken from PubChem BioAssay (NCI).
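Exposure lasted 48 hours, with cells grown in 96-well plates and compounds tested at five concentrations. TGI marks complete inhibition of growth.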

What was measured:
Experiment in all cases: DTP human tumour cell line panel, 48 h
HCC-2998 colon = tested on: HCC-2998 colon
786-0 renal = tested on: 786-0 renal
MOLT-4 leukemia = tested on: MOLT-4 leukemia
RXF 393 renal = tested on: RXF 393 renal
HS 578T breast = tested on: HS 578T breast
SF-295 CNS = tested on: SF-295 CNS
UACC-62 melanoma = tested on: UACC-62 melanoma
CCRF-CEM leukemia = tested on: CCRF-CEM leukemia
SK-MEL-5 melanoma = tested on: SK-MEL-5 melanoma
SNB-75 CNS = tested on: SNB-75 CNS
SF-268 CNS = tested on: SF-268 CNS
DU-145 prostate = tested on: DU-145 prostate
MDA-N = tested on: MDA-N
SK-MEL-2 melanoma = tested on: SK-MEL-2 melanoma
COLO 205 colon = tested on: COLO 205 colon
UO-31 renal = tested on: UO-31 renal
SR leukemia = tested on: SR leukemia
T-47D breast = tested on: T-47D breast
SK-OV-3 ovarian = tested on: SK-OV-3 ovarian
A549 NSCLC = tested on: A549 NSCLC
SF-539 CNS = tested on: SF-539 CNS
HCT-116 colon = tested on: HCT-116 colon
MCF7 breast = tested on: MCF7 breast
EKVX NSCLC = tested on: EKVX NSCLC
SK-MEL-28 melanoma = tested on: SK-MEL-28 melanoma
RPMI-8226 leukemia = tested on: RPMI-8226 leukemia
BT-549 breast = tested on: BT-549 breast
SN12C renal = tested on: SN12C renal
HOP-92 NSCLC = tested on: HOP-92 NSCLC
OVCAR-5 ovarian = tested on: OVCAR-5 ovarian
U251 CNS = tested on: U251 CNS
IGROV1 ovarian = tested on: IGROV1 ovarian
HCT-15 colon = tested on: HCT-15 colon
M14 melanoma = tested on: M14 melanoma
LOX IMVI melanoma = tested on: LOX IMVI melanoma
NCI/ADR-RES ovarian = tested on: NCI/ADR-RES ovarian
PC-3 prostate = tested on: PC-3 prostate
HT29 colon = tested on: HT29 colon
NCI-H460 lung = tested on: NCI-H460 lung
OVCAR-4 ovarian = tested on: OVCAR-4 ovarian
A498 renal = tested on: A498 renal
HL-60(TB) leukemia = tested on: HL-60(TB) leukemia
SW-620 colon = tested on: SW-620 colon
MDA-MB-231 breast = tested on: MDA-MB-231 breast
UACC-257 melanoma = tested on: UACC-257 melanoma
MALME-3M melanoma = tested on: MALME-3M melanoma
OVCAR-8 ovarian = tested on: OVCAR-8 ovarian
HOP-62 NSCLC = tested on: HOP-62 NSCLC
SNB-19 CNS = tested on: SNB-19 CNS
K-562 leukemia = tested on: K-562 leukemia
NCI-H23 lung = tested on: NCI-H23 lung
MDA-MB-435 = tested on: MDA-MB-435
NCI-H226 lung = tested on: NCI-H226 lung
TK-10 renal = tested on: TK-10 renal
CAKI-1 renal = tested on: CAKI-1 renal
KM12 colon = tested on: KM12 colon
OVCAR-3 ovarian = tested on: OVCAR-3 ovarian
ACHN renal = tested on: ACHN renal
NCI-H522 lung = tested on: NCI-H522 lung

## COc1ccc(C2CC(c3c(C)nn(-c4ccccc4)c3-c3ccc(C)cc3O)=NN2c2ccccc2)cc1 (centres undefined)
HCC-2998 colon
  TGI: > 100 µM
786-0 renal
  TGI: > 100 µM
MOLT-4 leukemia
  TGI: > 100 µM
RXF 393 renal
  TGI: > 100 µM
HS 578T breast
  TGI: > 100 µM
SF-295 CNS
  TGI: > 100 µM
UACC-62 melanoma
  TGI: > 100 µM
CCRF-CEM leukemia
  TGI: > 100 µM
SK-MEL-5 melanoma
  TGI: > 100 µM
SNB-75 CNS
  TGI: > 100 µM
SF-268 CNS
  TGI: > 100 µM
DU-145 prostate
  TGI: > 100 µM
MDA-N
  TGI: > 100 µM
SK-MEL-2 melanoma
  TGI: > 52.3 µM
COLO 205 colon
  TGI: > 100 µM
UO-31 renal
  TGI: > 100 µM
SR leukemia
  TGI: > 100 µM
T-47D breast
  TGI: > 100 µM
SK-OV-3 ovarian
  TGI: > 100 µM
A549 NSCLC
  TGI: > 100 µM
SF-539 CNS
  TGI: > 100 µM
HCT-116 colon
  TGI: > 100 µM
MCF7 breast
  TGI: > 100 µM
EKVX NSCLC
  TGI: > 100 µM
SK-MEL-28 melanoma
  TGI: > 100 µM
RPMI-8226 leukemia
  TGI: > 100 µM
BT-549 breast
  TGI: > 100 µM
SN12C renal
  TGI: > 100 µM
HOP-92 NSCLC
  TGI: > 100 µM
OVCAR-5 ovarian
  TGI: > 100 µM
U251 CNS
  TGI: > 100 µM
IGROV1 ovarian
  TGI: > 100 µM
HCT-15 colon
  TGI: > 100 µM
M14 melanoma
  TGI: > 100 µM
LOX IMVI melanoma
  TGI: > 100 µM
NCI/ADR-RES ovarian
  TGI: > 100 µM
PC-3 prostate
  TGI: > 100 µM
HT29 colon
  TGI: > 44 µM
NCI-H460 lung
  TGI: > 41.7 µM
OVCAR-4 ovarian
  TGI: > 100 µM
A498 renal
  TGI: > 100 µM
HL-60(TB) leukemia
  TGI: > 100 µM
SW-620 colon
  TGI: > 100 µM
MDA-MB-231 breast
  TGI: > 100 µM
UACC-257 melanoma
  TGI: > 100 µM
MALME-3M melanoma
  TGI: > 100 µM
OVCAR-8 ovarian
  TGI: > 100 µM
HOP-62 NSCLC
  TGI: > 100 µM
SNB-19 CNS
  TGI: > 100 µM
K-562 leukemia
  TGI: > 100 µM
NCI-H23 lung
  TGI: > 30.3 µM
MDA-MB-435
  TGI: > 100 µM
NCI-H226 lung
  TGI: > 100 µM
TK-10 renal
  TGI: > 100 µM
CAKI-1 renal
  TGI: > 100 µM
KM12 colon
  TGI: > 43.7 µM
OVCAR-3 ovarian
  TGI: > 100 µM
ACHN renal
  TGI: > 67.4 µM
NCI-H522 lung
  TGI: > 100 µM
